One series concerns SNL L5/L6 rats. Kind of series: L5/L6 spinal nerve ligation (SNL) Chung pain model, tactile allodynia (von Frey). Format: in vivo, rat. From the text:
The Spinal Nerve Ligation is an animal model representing peripheral nerve injury generating a neuropathic pain syndrome. In this model experimental animals develop the clinical symptoms of tactile allodynia and hyperalgesia. L5/L6 Spinal nerve ligation (SNL) injury was induced using the procedure of Kim and Chung (Kim et al., Pain 50:355-363 (1992)) in male Sprague-Dawley rats (Harlan; Indianapolis, Ind.) weighing 200 to 250 grams.
Anaesthesia was induced with 2% isofluorane in O2 at 2 L/min and maintained with 0.5% isofluorane in O2. Rats were then shaved and aseptically prepared for surgeries. A 2 cm paraspinal incision was made at the level of L4-S2. L4/L5 was exposed by removing the transverse process above the nerves with a small rongeur. The L5 spinal nerve is the larger of the two visible nerves below the transverse process and lies closest to the spine. The L6 spinal nerve is located beneath the corner of the slope bone. A home-made glass Chung rod was used to hook L5 or L6 and a pre-made slip knot of 4.0 silk suture was placed on the tip of the rod just above the nerve and pulled underneath to allow for the tight ligation. The L5 and L6 spinal nerves were tightly ligated distal to the dorsal root ganglion. The incision was closed, and the animals were allowed to recover for 5 days.
Sham control rats underwent the same operation and handling as the experimental animals, but without SNL.
Prior to initiating drug delivery, baseline behavioural testing data is obtained. At selected times after infusion of the Test or Control Article behavioural data can then be collected again.
The assessment of tactile allodynia consisted of measuring the withdrawal threshold of the paw ipsilateral to the site of nerve injury in response to probing with a series of calibrated von Frey filaments (innocuous stimuli). Animals were acclimated to the suspended wire-mesh cages for 30 min before testing. Each von Frey filament was applied perpendicularly to the plantar surface of the ligated paw of rats for 5 sec. A positive response was indicated by a sharp withdrawal of the paw. For rats, the first testing filament is 4.31. Measurements were taken before and after administration of test articles. […] The protocol was repeated until three changes in behaviour were determined (“up and down” method) (Chaplan et al., J. Neurosci. Methods 53:55-63 (1994)). The 50% paw withdrawal threshold was determined as (10^[Xf+kδ])/10,000, where Xf=the value of the last von Frey filament employed, k=Dixon value for the positive/negative pattern, and δ=the logarithmic difference between stimuli. The cut-off values for rats were no less than 0.2 g and no higher than 15 g (5.18 filament); for mice no less than 0.03 g and no higher than 2.34 g (4.56 filament). A significant drop of the paw withdrawal threshold compared to the pre-treatment baseline is considered tactile allodynia.
Rat SNL tactile allodynia were tested for Compounds 1-4 and 9-12 at 60 minutes compared to baseline and post-SNL. […] FIG. 1 is a plot of the antiallodynic effects of compound 4 (i.p.) tested in SNL L5/L6 rats using von Frey at three different doses, namely 3, 10 and 30 mpk, compared to vehicle alone. […] Rat SNL tactile allodynia were tested at 1, 2 and 4 hours after drug treatment (Table 6).

The subject of the next series is male CF1 mice. Kind of series: 6 Hz psychomotor seizure model of partial epilepsy. Format: in vivo, mouse. Also noted: Epilepsy 6 Hz (% Protected): concentration or dose not given beside the values. The method, then:
Compounds were evaluated for the protection against seizures induced by a 6 Hz, 0.2 ms rectangular pulse width of 3 s duration, at a stimulus intensity of 32 mA (CC97) applied to the cornea of male CF1 mice (20-30 g) according to procedures described by Barton et al, “Pharmacological Characterization of the 6 Hz Psychomotor Seizure Model of Partial Epilepsy,” Epilepsy Res. 47(3):217-27 (2001). Seizures are characterised by the expression of one or more of the following behaviours: stun, forelimb clonus, twitching of the vibrissae and Straub-tail immediately following electrical stimulation.

For series [1], the system named is Lamina I/II spinal cord neurons. The series can be described thus: Lamina assay: current-clamp recordings on lamina I/II spinal cord neurons. Format: cell-based, rat. The note with it: lamina I and II neurons. From the text: Male Wistar rats (P6 to P9 for voltage-clamp and P15 to P18 for current-clamp recordings) were anaesthetized through intraperitoneal injection of Inactin (Sigma). The spinal cord was then rapidly dissected out and placed in an ice-cold solution protective sucrose solution containing (in mM): 50 sucrose, 92 NaCl, 15 D-Glucose, 26 NaHCO3, 5 KCl, 1.25 NaH2PO4, 0.5 CaCl2, 7 MgSO4, 1 kynurenic acid, and bubbled with 5% CO2/95% O2. The meninges, dura, and dorsal and ventral roots were then removed from the lumbar region of the spinal cord under a dissecting microscope. The “cleaned” lumbar region of the spinal cord was glued to the vibratome stage and immediately immersed in ice cold, bubbled, sucrose solution. For current-clamp recordings, 300 to 350 μm parasagittal slices were cut to preserve the dendritic arbour of lamina I neurons, while 350 to 400 μm transverse slices were prepared for voltage-clamped Nav channel recordings. Slices were allowed to recover for 1 hour at 35° C. in Ringer solution containing (in mM): 125 NaCl, 20 D-Glucose, 26 NaHCO3, 3 KCl, 1.25 NaH2PO4, 2 CaCl2, 1 MgCl2, 1 kynurenic acid, 0.1 picrotoxin, bubbled with 5% CO2/95% O2. The slice recovery chamber was then returned to room temperature (20 to 22° C.) and all recordings were performed at this temperature. […]

The next series concerns mice. Kind of series: Mouse rotarod assay. Format: in vivo. The method, then: To assess a compound's undesirable side effects (toxicity), animals were monitored for overt signs of impaired neurological or muscular function. In mice, the rotarod procedure (Dunham and Miya, J. Am. Pharmacol. Assoc. 46:208-209 (1957)) is used to disclose minimal muscular or neurological impairment (MMI). When a mouse is placed on a rod that rotates at a speed of 6 rpm, the animal can maintain its equilibrium for long periods of time. The animal is considered toxic if it falls off this rotating rod three times during a […].
(In general: Falling from the rotarod earlier than controls is read as motor impairment.)

The structures appear in SMILES notation.

For `O=C1CN(C(=O)CC(c2ccc(Cl)cc2)c2ccc(Cl)cc2)CCN1` [Compound 3, 4-(3,3-bis(4-chlorophenyl)propanoyl)piperazin-2-one], the “Rat SNL Tactile Allodynia (% Antiallodynia)” value in the series on SNL L5/L6 rats (1 hour after drug treatment) came out at 51%; with SNL L5/L6 rats (2 hours after drug treatment), 49%; with SNL L5/L6 rats (4 hours after drug treatment) it was 30%. Moreover, the “Epilepsy 6 Hz (% Protected)” value with male CF1 mice (0.25 hour), in the series on male CF1 mice (0.5 hour), with male CF1 mice (1 hour), with male CF1 mice (2 hours) and with male CF1 mice (4 hours) was 0% throughout. The “% Spike Change (Mean; % change from control)” value in series [1] was found to be 28.7%. For the same compound, the “% Impaired” value with mice (0.25 hr), in the series with mice (0.5 hr), with mice (1 hr), in the series on mice (2 hr) and in the series with mice (4 hr) was 0% each time.

For the compound `O=C1CN(C(=O)CC(c2ccccc2)c2ccccc2)CCN1` [Compound 4, 4-(3,3-diphenylpropanoyl)piperazin-2-one], in the series on SNL L5/L6 rats (1 hour after drug treatment), the “Rat SNL Tactile Allodynia (% Antiallodynia)” value is on record as 92%. The “Rat SNL tactile allodynia, anti-allodynia (statement)” value with SNL L5/L6 rats (compared to baseline and post-SNL) is recorded as “significant antiallodynia”. Further, in the series with SNL L5/L6 rats (i.p., 3, 10 and 30 mpk, 60 minutes after drug administration, von Frey), the “Antiallodynic effects compared to vehicle (FIG. 1)” value is on record as “statistically significant antiallodynic effects”. Besides, the “Epilepsy 6 Hz (% Protected)” value amounted to 50% in the series on male CF1 mice (0.25 hour), 88% in the series with male CF1 mice (0.5 hour), 13% in the series with male CF1 mice (1 hour) and 25% in the series on male CF1 mice (2 hours). Further, the 50% effect level in the series with male CF1 mice (Mus musculus, 32 mA, mice) (ED50) was put at a dose of 192 mg/kg. Further, the “% Spike Change (Mean; % change from control)” value in series [1] is recorded as −5.3%. Moreover, the “% Impaired” value in the series on mice (0.25 hr), in the series with mice (0.5 hr), with mice (1 hr), in the series on mice (2 hr) and with mice (4 hr) was 0% each time.

These data come from patent US8629149B2, “Oxopiperazine derivatives for the treatment of pain and epilepsy” (Zalicus Pharmaceuticals Ltd., priority 2009, dated 2014).
